Test [1] addresses T1, PAF receptor (dog platelets) (Canis lupus familiaris, UniProt A0A8I3NSH0).
T1 construct: followed by 2×10^7 dog platelets; from tissue; host or cells: dog platelets, washed, intact
T1 sequence (A0A8I3NSH0 1-343): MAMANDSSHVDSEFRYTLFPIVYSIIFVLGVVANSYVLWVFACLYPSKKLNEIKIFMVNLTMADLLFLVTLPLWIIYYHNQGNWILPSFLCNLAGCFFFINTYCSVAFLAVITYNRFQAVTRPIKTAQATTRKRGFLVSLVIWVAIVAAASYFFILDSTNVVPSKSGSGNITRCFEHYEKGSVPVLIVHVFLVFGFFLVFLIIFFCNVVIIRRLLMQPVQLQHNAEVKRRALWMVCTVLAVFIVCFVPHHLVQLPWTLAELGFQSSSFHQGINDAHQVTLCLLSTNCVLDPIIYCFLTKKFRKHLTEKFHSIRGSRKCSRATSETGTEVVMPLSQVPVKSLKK
Briefly: PAF Radioreceptor Binding Assay. Particulars: 3H-PAF. The method, then: Platelet rich plasma is prepared by centrifugation of citrate-treated dog blood. Acidification to pH 6.5 with 0.15M citric acid and centrifugation for 10 minutes at 1000 g yields a platelet pellet which is then washed by resuspension in EDTA-Phosphate Buffered Saline (PBS) and recentrifuged. The washed platelet preparation is adjusted to 2×10^7 platelets/50 μl in 0.1% BSA-PBS.
To a […] microfuge tube containing 50 μl silicone oil (specific gravity 1.023) is added buffer, PAF standard or analog, or an extract to bring the aqueous volume to 150 μl. 50 μl of ^3 H-PAF (10,000 cpm, 45 Ci/mM) is added followed by 2×10^7 dog platelets. After mixing, incubating for 10 minutes at room temperature, and centrifuging for 1 minute in a Beckman Microfuge B (8000 g), the pellet is removed by clipping off the tip of the tube, solubilizing the platelets with 200 μl of 50% methanol, and counting in 10 ml of Aquasol. […] Results obtained with representative compounds of the present invention in this assay are summarized hereinafter in Table I.

Another test has as its target T2, Δ^5 -Lipoxygenase (Rattus norvegicus, UniProt P12527).
T2 construct: using rat basophil leukemia cells (RBL-1 cells) as the enzyme source; endogenous in cells; host or cells: RBL-1 (rat basophil leukemia) cells, 49,300×g supernatant of homogenate
T2 sequence (P12527 1-673): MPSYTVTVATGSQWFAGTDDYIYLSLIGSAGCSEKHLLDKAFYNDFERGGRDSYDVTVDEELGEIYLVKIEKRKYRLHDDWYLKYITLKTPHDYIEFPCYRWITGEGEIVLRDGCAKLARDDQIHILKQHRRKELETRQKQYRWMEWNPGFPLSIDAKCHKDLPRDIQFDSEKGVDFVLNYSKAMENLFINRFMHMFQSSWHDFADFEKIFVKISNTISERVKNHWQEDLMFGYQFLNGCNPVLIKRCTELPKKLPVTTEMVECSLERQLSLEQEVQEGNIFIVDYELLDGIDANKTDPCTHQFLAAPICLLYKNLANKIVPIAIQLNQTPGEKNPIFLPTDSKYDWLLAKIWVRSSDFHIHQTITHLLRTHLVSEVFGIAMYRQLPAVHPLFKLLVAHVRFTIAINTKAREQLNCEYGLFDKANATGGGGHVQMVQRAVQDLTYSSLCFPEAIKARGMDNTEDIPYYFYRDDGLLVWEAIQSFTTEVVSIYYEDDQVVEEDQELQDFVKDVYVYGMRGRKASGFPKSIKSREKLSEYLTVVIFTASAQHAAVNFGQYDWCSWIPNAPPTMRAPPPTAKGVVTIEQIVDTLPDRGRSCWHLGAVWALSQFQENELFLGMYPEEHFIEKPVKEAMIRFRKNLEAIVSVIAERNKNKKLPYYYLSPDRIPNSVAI
Description: Δ^5 -Lipoxygenase Inhibition. The format is biochemical. The note with it: RBL-1 cell supernatant; for inhibition at 10 µM: at 10^-5 M. The method, then:
Δ^5 -Lipoxygenase inhibition was measured by following the conversion of ^14 C-arachidonic acid to ^14 C-5-HETE, using rat basophil leukemia cells (RBL-1 cells) as the enzyme source. These cells were maintained in stationary stock cultures and grown in spinner cultures prior to isolation by centrifugation at 4° C. at 1,500×g for 10 minutes. The cells were washed three times at 4° C. with 0.05M Tris HCl (ph 7.2) containing 1 mM EDTA, 14 μM indomethacin and 0.9% NaCl. They were then homogenized at 0°-4° C. using a glass/glass homogenizer in 0.05M Tris-HCl (pH 7.2) containing 1 mM EDTA and 14 μM indomethacin. The homogenate was then centrifuged at 49,300×g for 20 minutes (0°-4° C.) and the resulting supernatant frozen in small aliquots in a dry ice/acetone bath prior to storage at -80° C. Under these conditions, the enzyme was stable to freezing and thawing and to preincubation for 10 minutes at 30° C.
For enzyme assay, 100-200 μl of enzyme was incubated in the presence and absence of test compound (prepared in DMSO) for 10 minutes at 30° C. in 0.05M Tris-HCl buffer (pH 7.2) containing 1 mM glutathione, 2 mM CaCl2, 14 μM indomethacin and 0.25 and 0.5 mM EDTA (final volume 400 μl). The final DMSO concentration in these assays was 4%. The assay was initiated by the addition of 100 μl ^14 C-arachidonic acid (58 mCi/mmole) and incubations were carried out for 10 minutes at 37° C. in a shaking water bath. The reactions were stopped by the simultaneous addition of 4.0 ml of diethylether and 100 μl of 1.0 m citric acid, while the tubes were vigorously vortexed. The ^14 C-5-HETE generated by the enzyme was extracted into the acidified ether layer which was separated from the aqueous layer by freezing the assay tubes in a dry ice/acetone bath prior to decanting the liquid ether layer. The ether layer was evaporated to dryness under N2, the residue dissolved in 65 μl chloroform:methanol (2:1 v/v), prior to separating ^14 C-5-HETE from other ^14 C-labeled compounds on silica gel impregnated glass fiber TLC plates utilizing an elution solvent of isoctane:methylethylketone:acetic acid (100:9:1 v/v). ^14 C-5-HETE was identified by its co-chromatography with a chemically synthesized standard. The radioactive peaks of the chromatogram were cut out and the radioactivity was quantitated by liquid scintillation counting. The amount of 5-HETE obtained per sample was expressed as the percent of total and was calculated in the basis of: [formula] in order to evaluate the effect of the test compounds, the mean percent inhibition of ^14 C-5-HETE production was calculated. The IC50 for a drug was determined from a linear regression analysis of a plot of the mean percent inhibition vs drug concentration.

Where only a bound is given, the exact number is not on record here.

In general, IC50 refers to the concentration at which inhibition is half-maximal. The inhibition is the relative decrease from the control value, in per cent.

In test [1], `CC(C)c1ccc2ncn(/C=C/C(=O)NCCCCc3cccnc3)c(=O)c2c1` [drawing 12] showed a 50% inhibitory concentration (IC50) of 650 nM. The compound also yielded an inhibition at 10 µM at Δ^5 -Lipoxygenase of 84%. The compound further yielded an inhibition at 1 µM on Δ^5 -Lipoxygenase (at 10^-6 M) of 27%.

On to `CC(C)c1ccc2ncn(/C=C/C(=O)NCCCCc3ccccn3)c(=O)c2c1` [drawing 17], for which the IC50 in test [1] was more than 1000 nM; on Δ^5 -Lipoxygenase, 800 nM. On Δ^5 -Lipoxygenase, this compound registered an inhibition at 10 µM of 100%.

Consider `CC(C)c1ccc2ncn(/C=C/C(=O)NCCCCn3ccnc3)c(=O)c2c1` [drawing 15], for which the IC50 in test [1] was more than 1000 nM. In addition, at Δ^5 -Lipoxygenase, the inhibition at 10 µM was found to be 0%.

For the origin of these results see patent US4599336A, “Derivatives of (E)-3-(4-oxo-4H-quinazolin-3-yl)-2-propenamide” (Hoffmann-La Roche Inc., priority 1983, dated 1986).
